These results are taken from PubChem BioAssay AID328 (DTP/NCI, 2004).

The subject of this test is BDF1 mice, P388 leukemia ip, median survival T/C. Put plainly: NCI In Vivo Anticancer Drug Screen. Data for tumor model P388 Leukemia (intraperitoneal) in B6D2F1 (BDF1) mice. Conditions: endpoint: median survival time, higher = longer survival. The method in brief: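 Transplantable tumour in mice; compound vs vehicle dosing; survival scored; ratio of treated to control reported.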

The mark [1] stands for this setting: dose: 50.0 mg/kg/injection, schedule: Q01DX009 (ip), vehicle: saline with Tween-80.
[2] abbreviates: dose: 100.0 mg/kg/injection, schedule: Q01DX009 (ip), vehicle: saline with Tween-80.
[3] abbreviates: dose: 6.25 mg/kg/injection, schedule: Q01DX009 (ip), vehicle: saline with Tween-80.
Where [4] appears, read: dose: 12.5 mg/kg/injection, schedule: Q01DX009 (ip), vehicle: saline with Tween-80.
The mark [5] stands for this setting: dose: 50.0 mg/kg/injection, schedule: Q01DX009 (ip), vehicle: Klucel (hydroxypropylcellulose) (HPC).
[6] abbreviates: dose: 100.0 mg/kg/injection, schedule: Q01DX009 (ip), vehicle: Klucel (hydroxypropylcellulose) (HPC).
The mark [7] stands for this setting: dose: 100.0 mg/kg/injection, schedule: Q04DX003 (ip), vehicle: Klucel (hydroxypropylcellulose) (HPC).
Setting [8] is: dose: 200.0 mg/kg/injection, schedule: Q01DX009 (ip), vehicle: Klucel (hydroxypropylcellulose) (HPC).
[9] abbreviates: dose: 200.0 mg/kg/injection, schedule: Q04DX003 (ip), vehicle: Klucel (hydroxypropylcellulose) (HPC).
The mark [10] stands for this setting: dose: 100.0 mg/kg/injection, schedule: Q04DX003 (ip), vehicle: saline with Tween-80.
The mark [11] stands for this setting: dose: 200.0 mg/kg/injection, schedule: Q04DX003 (ip), vehicle: saline with Tween-80.
The mark [12] stands for this setting: dose: 400.0 mg/kg/injection, schedule: Q04DX003 (ip), vehicle: saline with Tween-80.

Each structure is given as a SMILES string. Several values for one entry are separate records, joined by “and”; a condition that tells them apart may be missing. Equal values may be shown once. Inconclusive results and toxic doses are left out. Non-standard residues stand in square brackets, D forms with d. Residues, ends and D or L forms follow the SMILES beside them. ξ: configuration not given here. ξF = NC(Cc1ccccc1)C(=O)O

On to `CCn1c2ccccc2c2cc(NC(=O)N(CCCl)N=O)ccc21`, for which the T/C reads like this: (dose: 100.0 mg/kg/injection, schedule: Q01DX009 (ip), vehicle: saline sonified) 170 % of control; (dose: 200.0 mg/kg/injection, schedule: Q01DX009 (ip), vehicle: saline sonified) 150 % of control; (dose: 400.0 mg/kg/injection, schedule: Q01DX009 (ip), vehicle: saline sonified) 185 % of control.

For `CNC(=O)Oc1coc(CCl)cc1=O`, the T/C (dose: 12.0 mg/kg/injection, schedule: Q01DX009 (ip), vehicle: Klucel (hydroxypropylcellulose) (HPC)) was 95 % of control; the T/C (dose: 16.5 mg/kg/injection, schedule: Q01DX009 (ip), vehicle: saline) is 108 % of control; the T/C (dose: 18.0 mg/kg/injection, schedule: Q01DX009 (ip), vehicle: Klucel (hydroxypropylcellulose) (HPC)) was 86 % of control; the T/C (dose: 25.0 mg/kg/injection, schedule: Q01DX009 (ip), vehicle: saline) was 120 % of control; the T/C (dose: 27.0 mg/kg/injection, schedule: Q01DX009 (ip), vehicle: Klucel (hydroxypropylcellulose) (HPC)) was 100 % of control; the T/C (dose: 37.5 mg/kg/injection, schedule: Q01DX009 (ip), vehicle: saline) is 116 % of control. For the same compound, the T/C is, setting by setting: (dose: 40.0 mg/kg/injection, schedule: Q01DX009 (ip), vehicle: Klucel (hydroxypropylcellulose) (HPC)) 118 % of control; (dose: 60.0 mg/kg/injection, schedule: Q01DX009 (ip), vehicle: Klucel (hydroxypropylcellulose) (HPC)) 118 % of control.

Regarding `c1ccc(CN2CCCCC2)nc1`, the T/C is, setting by setting: (dose: 5.0 mg/kg/injection, schedule: Q01DX009 (ip), vehicle: Klucel (hydroxypropylcellulose) (HPC)) 105 % of control; (dose: 5.0 mg/kg/injection, schedule: Q04DX003 (ip), vehicle: Klucel (hydroxypropylcellulose) (HPC)) 104 % of control; (dose: 10.0 mg/kg/injection, schedule: Q01DX009 (ip), vehicle: Klucel (hydroxypropylcellulose) (HPC)) 100 % of control; (dose: 10.0 mg/kg/injection, schedule: Q04DX003 (ip), vehicle: Klucel (hydroxypropylcellulose) (HPC)) 100 % of control; (dose: 20.0 mg/kg/injection, schedule: Q01DX009 (ip), vehicle: Klucel (hydroxypropylcellulose) (HPC)) 105 % of control; (dose: 20.0 mg/kg/injection, schedule: Q04DX003 (ip), vehicle: Klucel (hydroxypropylcellulose) (HPC)) 100 % of control.

Take `CCCCNC(=O)n1nnc2ccccc21`: the T/C was 89 % of control under setting [1]; 106 % of control under setting [2]; 106 % of control (dose: 200.0 mg/kg/injection, schedule: Q01DX009 (ip), vehicle: saline with Tween-80).

Turning to `CC(C)C(C)/C=C\C(C)C1CCC2C3=CCC4CC(=O)CCC4(C)C3CCC21C` (stereo not drawn), the T/C reads like this: under setting [3], 104 % of control; under setting [4], 104 % of control; (dose: 25.0 mg/kg/injection, schedule: Q01DX009 (ip), vehicle: saline with Tween-80) 108 % of control.

As to `CN(C)C1CCc2[nH]c3c(F)cc(F)cc3c2C1` (stereo not drawn), the T/C runs as follows: (dose: 3.13 mg/kg/injection, schedule: Q01DX009 (ip), vehicle: saline with Tween-80) 95 % of control; under setting [3], 103 % of control; under setting [4], 101 % of control.

As for `COc1ccc2c(c1OC)C(=O)OC2(O)C1=NCCc2cc3c(cc21)OCO3` (stereo not drawn), the T/C was 111 % of control (dose: 50.0 mg/kg/injection, schedule: Q01DX005 (ip), vehicle: saline with Tween-80); 98 % of control (dose: 100.0 mg/kg/injection, schedule: Q01DX005 (ip), vehicle: saline with Tween-80); 109 % of control (dose: 200.0 mg/kg/injection, schedule: Q01DX005 (ip), vehicle: saline with Tween-80).

With `O=C1c2ccccc2C(=O)N1CC[P+](c1ccccc1)(c1ccccc1)c1ccccc1`, the T/C is 103 % of control (dose: 0.78 mg/kg/injection, schedule: Q01DX009 (ip), vehicle: water); 112 % of control (dose: 1.56 mg/kg/injection, schedule: Q04DX003 (ip), vehicle: water); 94 % of control and 123 % of control (dose: 3.12 mg/kg/injection, schedule: Q04DX003 (ip), vehicle: water); 165 % of control (dose: 3.13 mg/kg/injection, schedule: Q01DX009 (ip), vehicle: Klucel (hydroxypropylcellulose) (HPC)); 151 % of control and 153 % of control (dose: 6.25 mg/kg/injection, schedule: Q01DX009 (ip), vehicle: Klucel (hydroxypropylcellulose) (HPC)); 174 % of control (dose: 6.25 mg/kg/injection, schedule: Q01DX009 (ip), vehicle: water). Moreover, the T/C was 108 % of control and 120 % of control (dose: 6.25 mg/kg/injection, schedule: Q04DX003 (ip), vehicle: water); 157 % of control and 160 % of control (dose: 12.5 mg/kg/injection, schedule: Q01DX009 (ip), vehicle: Klucel (hydroxypropylcellulose) (HPC)); 158 % of control (dose: 12.5 mg/kg/injection, schedule: Q01DX009 (ip), vehicle: water); 119 % of control and 120 % of control (dose: 12.5 mg/kg/injection, schedule: Q04DX003 (ip), vehicle: water); 90 % of control (dose: 25.0 mg/kg/injection, schedule: Q01DX009 (ip), vehicle: Klucel (hydroxypropylcellulose) (HPC)); 120 % of control (dose: 50.0 mg/kg/injection, schedule: Q04DX003 (ip), vehicle: water).

On to `Cc1cc(=O)c2cccc(C)c2[nH]1`, for which the T/C under setting [5] is 96 % of control; the T/C under setting [6] was 96 % of control; the T/C under setting [7] was 95 % of control; the T/C under setting [8] was 92 % of control; the T/C under setting [9] was 91 % of control.

Take `O=Cc1nc2ccccc2c2ccccc12`: the T/C is 100 % of control (dose: 100.0 mg/kg/injection, schedule: Q01DX001 (ip), vehicle: saline sonified); 100 % of control (dose: 200.0 mg/kg/injection, schedule: Q01DX001 (ip), vehicle: saline sonified); 100 % of control (dose: 400.0 mg/kg/injection, schedule: Q01DX001 (ip), vehicle: saline sonified).

`CC(=O)OC1CC2CCCCC21` (stereo not drawn): the T/C runs as follows: (dose: 50.0 mg/kg/injection, schedule: Q01DX009 (ip), vehicle: other) 116 % of control; (dose: 100.0 mg/kg/injection, schedule: Q01DX009 (ip), vehicle: other) 105 % of control; (dose: 200.0 mg/kg/injection, schedule: Q01DX009 (ip), vehicle: other) 100 % of control.

For the compound `Cc1ccc(N2C(=O)CC(Sc3ccccc3N)C2=O)cc1` (stereo not drawn), the T/C is 105 % of control under setting [5]; 100 % of control (dose: 100.0 mg/kg/injection, schedule: Q01DX001 (ip), vehicle: saline); 105 % of control under setting [6]; 95 % of control under setting [7]; 90 % of control (dose: 200.0 mg/kg/injection, schedule: Q01DX001 (ip), vehicle: saline); 105 % of control under setting [8]. The T/C reads like this: under setting [9], 87 % of control; (dose: 400.0 mg/kg/injection, schedule: Q01DX001 (ip), vehicle: saline) 90 % of control.

Consider `NC(Cc1ccccc1)C(=O)NCC(=O)NCC(=O)O` (stereo not drawn) (H-[ξF]-Gly-Gly-OH), for which the T/C is, setting by setting: under setting [10], 95 % of control; under setting [11], 104 % of control; under setting [12], 109 % of control.

As to `O=[N+]([O-])c1ccc2nc3c(nc2c1)-c1cccc2cccc-3c12`, the T/C under setting [10] was 91 % of control, the T/C under setting [11] is 100 % of control and the T/C under setting [12] was 91 % of control.

On to `CCN(CC)S(=O)(=O)c1ccc(C(=O)O)cc1`, for which the T/C by setting is: under setting [7], 100 % of control; under setting [9], 104 % of control; (dose: 400.0 mg/kg/injection, schedule: Q04DX003 (ip), vehicle: Klucel (hydroxypropylcellulose) (HPC)) 100 % of control.

In the case of `CN(C)c1ccc(C2N(Cc3ccccc3)CCC3CCCCN32)cc1` (stereo not drawn), the T/C is, setting by setting: under setting [1], 99 % of control; under setting [2], 92 % of control.

Take `O=C(/C=N/O)Nc1cc(Cl)c(Cl)cc1Cl`: the T/C under setting [1] was 109 % of control; the T/C (dose: 50.0 mg/kg/injection, schedule: Q04DX003 (ip), vehicle: saline with Tween-80) was 109 % of control; the T/C (dose: 75.0 mg/kg/injection, schedule: Q01DX009 (ip), vehicle: saline with Tween-80) is 113 % of control; the T/C under setting [2] was 104 % of control; the T/C under setting [10] was 100 % of control; the T/C (dose: 150.0 mg/kg/injection, schedule: Q01DX009 (ip), vehicle: saline with Tween-80) is 118 % of control. For the same compound, under setting [11], the T/C is 122 % of control.
